The values below come from US12686673B2 (Blueprint Medicines Corporation, priority 2020, dated 2026).

What all share (format): cell-based
The target of assay [1] is EGFR (A767_dupASV) expressing Ba/F3 stable cell line (Homo sapiens, UniProt P00533, DUP767-769, cells depend on it). The assay is described as follows: Cellular proliferation (Alamar Blue) assay, EGFR A767_dupASV Ba/F3. Conditions: 72 hr, read-out: A767 IC50. As for the experimental part: (§1) • 1. EGFR(D770_N771insSVD) expressing Ba/F3 stable cell line • 2. EGFR (A767_dupASV) expressing Ba/F3 stable cell line • 3. A431 cells • 4. EGFR (H773insNPH) expressing Ba/F3 stable cell line • 5. HER2 (A775_G776insYVMA) expressing Ba/F3 stable cell line Assay Procedure: • 1. Seed cells at 5000 for A431 and 15,000 cells for Ba/F3 in 100 μL/well in complete media (for A431: DMEM with […] and for Ba/F3 cells: RPMI with 10% FBS) in 96-well tissue culture plate. Leave outer wells without cells for background measurements. Incubate at 37 degree Celsius in […] humidified incubator for 16-18 hours. • 2. Add 0.025 ml of 5× concentration compound dilution or DMSO control. Final compound concentration range is 10-0.0005 μM prepared in 3-fold serial dilutions. Incubate for 72 hr at 37 degree Celsius in […] humidified incubator. • 3. Add 0.0125 ml Alamar Blue™ reagent to each well with multi-channel pipette and tap gently on each side of the plate to mix. Incubate for 3 hours at 37 degree Celsius in 5% CO2 humidified incubator. • 4. […] Data analysis was performed using XLfit 5.5.0.5.
Chain of EGFR (A767_dupASV) expressing Ba/F3 stable cell line (P00533 with tags, fused parts or gaps DUP767-769): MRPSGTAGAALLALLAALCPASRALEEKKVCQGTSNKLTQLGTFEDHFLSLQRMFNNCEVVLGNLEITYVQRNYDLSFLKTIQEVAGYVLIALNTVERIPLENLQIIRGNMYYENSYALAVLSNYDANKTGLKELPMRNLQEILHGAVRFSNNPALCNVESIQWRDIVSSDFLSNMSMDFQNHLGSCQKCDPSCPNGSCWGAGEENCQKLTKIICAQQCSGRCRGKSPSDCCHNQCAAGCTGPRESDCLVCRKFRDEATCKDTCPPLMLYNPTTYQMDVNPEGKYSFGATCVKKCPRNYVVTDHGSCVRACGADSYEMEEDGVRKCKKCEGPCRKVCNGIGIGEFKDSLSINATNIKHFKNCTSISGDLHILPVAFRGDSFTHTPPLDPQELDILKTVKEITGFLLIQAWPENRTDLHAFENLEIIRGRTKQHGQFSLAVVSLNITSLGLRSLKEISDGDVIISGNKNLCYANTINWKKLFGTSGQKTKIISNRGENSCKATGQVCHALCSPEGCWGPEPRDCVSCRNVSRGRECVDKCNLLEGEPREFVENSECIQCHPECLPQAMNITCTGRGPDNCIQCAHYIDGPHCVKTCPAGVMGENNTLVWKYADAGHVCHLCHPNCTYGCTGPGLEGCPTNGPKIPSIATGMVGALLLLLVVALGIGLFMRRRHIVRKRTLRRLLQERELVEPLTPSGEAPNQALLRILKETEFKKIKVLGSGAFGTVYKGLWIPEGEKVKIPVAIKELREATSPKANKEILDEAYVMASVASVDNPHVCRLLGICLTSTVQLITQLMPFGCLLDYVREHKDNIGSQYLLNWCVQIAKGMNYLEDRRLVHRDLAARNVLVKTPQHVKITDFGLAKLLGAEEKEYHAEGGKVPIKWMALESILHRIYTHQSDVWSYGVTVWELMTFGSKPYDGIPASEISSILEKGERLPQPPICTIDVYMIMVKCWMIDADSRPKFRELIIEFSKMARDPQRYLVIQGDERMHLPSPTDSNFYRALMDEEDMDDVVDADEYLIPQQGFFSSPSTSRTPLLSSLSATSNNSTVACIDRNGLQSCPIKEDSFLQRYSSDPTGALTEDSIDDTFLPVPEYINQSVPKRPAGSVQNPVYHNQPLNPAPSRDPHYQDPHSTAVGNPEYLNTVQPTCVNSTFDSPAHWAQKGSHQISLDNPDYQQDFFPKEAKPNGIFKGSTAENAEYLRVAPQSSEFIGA

Another assay has as its system A431 cells. In words: Cellular proliferation (Alamar Blue) assay, A431. As to conditions: Homo sapiens, A-431; A431 cells, Alamar Blue, 72 hr; read-out: A431 IC50. How it is done:
as §1
In general terms: Resazurin is reduced to fluorescent resorufin, in cell work by metabolically active cells.

Assay [2] has as its target EGFR(D770_N771insSVD) expressing Ba/F3 stable cell line (Homo sapiens, UniProt P00533, DUP768-770, cells depend on it). In words: Cellular proliferation (Alamar Blue) assay, EGFR D770_N771insSVD Ba/F3. Conditions: 72 hr, read-out: D770 IC50. How it is done:
as §1

Counter-ions that a name gives are not always drawn.

Chain of EGFR(D770_N771insSVD) expressing Ba/F3 stable cell line (P00533 with tags, fused parts or gaps DUP768-770): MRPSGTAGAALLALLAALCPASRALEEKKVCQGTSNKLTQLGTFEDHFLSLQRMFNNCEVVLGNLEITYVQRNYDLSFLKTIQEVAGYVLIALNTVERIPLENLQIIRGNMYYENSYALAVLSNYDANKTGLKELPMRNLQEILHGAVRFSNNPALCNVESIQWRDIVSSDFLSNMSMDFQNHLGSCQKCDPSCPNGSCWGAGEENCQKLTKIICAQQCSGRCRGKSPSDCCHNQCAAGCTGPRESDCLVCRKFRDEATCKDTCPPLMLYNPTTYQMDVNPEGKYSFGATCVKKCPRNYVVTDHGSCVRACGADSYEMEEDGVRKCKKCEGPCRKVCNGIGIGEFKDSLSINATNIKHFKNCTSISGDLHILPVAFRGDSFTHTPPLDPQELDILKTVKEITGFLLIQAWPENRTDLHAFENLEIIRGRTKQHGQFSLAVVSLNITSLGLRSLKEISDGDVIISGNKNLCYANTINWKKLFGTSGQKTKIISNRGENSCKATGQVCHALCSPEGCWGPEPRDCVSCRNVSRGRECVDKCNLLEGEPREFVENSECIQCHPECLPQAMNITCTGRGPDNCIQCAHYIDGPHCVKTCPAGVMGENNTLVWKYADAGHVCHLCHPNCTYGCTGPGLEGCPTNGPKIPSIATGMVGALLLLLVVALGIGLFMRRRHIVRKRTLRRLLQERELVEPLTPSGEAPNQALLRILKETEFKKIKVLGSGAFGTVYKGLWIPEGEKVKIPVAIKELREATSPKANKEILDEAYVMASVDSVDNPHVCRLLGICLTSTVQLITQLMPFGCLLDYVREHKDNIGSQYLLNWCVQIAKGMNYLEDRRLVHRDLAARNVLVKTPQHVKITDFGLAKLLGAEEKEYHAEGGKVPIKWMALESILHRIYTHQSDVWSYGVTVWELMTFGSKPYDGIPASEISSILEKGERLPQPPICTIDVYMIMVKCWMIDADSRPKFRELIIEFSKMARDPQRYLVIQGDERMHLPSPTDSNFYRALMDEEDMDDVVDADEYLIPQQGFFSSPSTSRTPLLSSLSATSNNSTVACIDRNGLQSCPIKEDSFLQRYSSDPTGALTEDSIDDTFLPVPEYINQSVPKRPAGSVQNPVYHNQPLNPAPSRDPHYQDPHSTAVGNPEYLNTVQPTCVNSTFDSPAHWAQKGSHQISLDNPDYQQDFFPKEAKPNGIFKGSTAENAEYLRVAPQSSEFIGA

Consider `C=CC(=O)Nc1ccc(F)c(Nc2nc(Nc3cnn(C)c3)ncc2-c2ccccc2C(F)(F)F)c1` [Compound 65, N-(4-fluoro-3-((2-((1-methyl-1H-pyrazol-4-yl)amino)-5-(2-(trifluoromethyl)phenyl)pyrimidin-4-yl)amino)phenyl)acrylamide], for which the GI50 worked out at 2.74 µM in assay [1] and 1 µM in assay [2]. Besides, the 50% inhibitory concentration (IC50) with A431 cells came to 1.94 µM.

Regarding `C=CC(=O)Nc1ccc(F)c(Nc2nc(Nc3cnn(C)c3)ncc2-c2ccnc(C)c2)c1` [Compound 80, N-(4-fluoro-3-((2-((1-methyl-1H-pyrazol-4-yl)amino)-5-(2-methylpyridin-4-yl)pyrimidin-4-yl)amino)phenyl)acrylamide], the GI50 in assay [1] worked out at 0.751 µM; in assay [2], 0.256 µM. Also, in the assay with A431 cells, the IC50 stood at 0.082 µM.

For `C=CC(=O)Nc1ccc(F)c(Nc2nc(Nc3cnn(C)c3)ncc2-c2cn[nH]c2)c1` [Compound 98, N-(4-fluoro-3-((2-((1-methyl-1H-pyrazol-4-yl)amino)-5-(1H-pyrazol-4-yl)pyrimidin-4-yl)amino)phenyl)acrylamide], the values for the GI50 in assay [1] and in assay [2] were 0.942 µM and 0.671 µM, respectively. The IC50 with A431 cells was greater than 10 µM.

On to `C=CC(=O)Nc1ccc(F)c(Nc2nc(Nc3ccn(C)n3)ncc2-c2ccc(C(F)(F)F)cc2)c1` [Compound 113, N-(4-fluoro-3-((2-((1-methyl-1H-pyrazol-3-yl)amino)-5-(4-(trifluoromethyl)phenyl)pyrimidin-4-yl)amino)phenyl)acrylamide trifluoroacetate], for which the GI50 was determined as 0.263 µM in assay [1] and 0.317 µM in assay [2]. In the assay with A431 cells, the IC50 stood at 0.201 µM.

For `C=CC(=O)Nc1ccc(F)c(Nc2nc(Nc3cnn(C)c3)ncc2C2=CCN(C)CC2)c1` [Compound 114, N-(4-fluoro-3-((5-(1-methyl-1,2,3,6-tetrahydropyridin-4-yl)-2-((1-methyl-1H-pyrazol-4-yl)amino)pyrimidin-4-yl)amino)phenyl)acrylamide], the GI50 in assay [1] stood at 0.964 µM; in assay [2], 1.84 µM. In the assay on A431 cells, the half-inhibitory concentration (IC50) worked out at 0.816 µM.

Consider `C=CC(=O)Nc1ccc(N(C)C)c(Nc2nc(Nc3cnn(C)c3)ncc2-c2ccc(C(F)(F)F)cc2)c1` [Compound 119, N-(4-(dimethylamino)-3-((2-((1-methyl-1H-pyrazol-4-yl)amino)-5-(4-(trifluoromethyl)phenyl)pyrimidin-4-yl)amino)phenyl)acrylamide trifluoroacetate], for which the GI50 in assay [1] and in assay [2] was greater than 10 µM each time. For the same molecule, the IC50 with A431 cells was greater than 10 µM.

Turning to `C=CC(=O)Nc1ccc(F)c(Nc2nc(Nc3cnn(C)c3)ncc2C2CC2)c1` [Compound 120, N-(3-((5-cyclopropyl-2-((1-methyl-1H-pyrazol-4-yl)amino)pyrimidin-4-yl)amino)-4-fluorophenyl)acrylamide trifluoroacetate], the GI50 in assay [1] came to 0.875 µM; in assay [2], 0.967 µM. For the same molecule, the IC50 in the assay with A431 cells was determined as 3.8 µM.

Consider `C=CC(=O)Nc1ccc(F)c(Nc2nc(Nc3ccccc3)ncc2-c2ccc(C(F)(F)F)cc2)c1` [Compound 121, N-(4-fluoro-3-((2-(phenylamino)-5-(4-(trifluoromethyl)phenyl)pyrimidin-4-yl)amino)phenyl)acrylamide], for which the values for the GI50 in assay [1] and in assay [2] were greater than 10 µM and 2.87 µM, respectively. In addition, the concentration for half-maximal inhibition (IC50) in the assay on A431 cells was determined as 1.28 µM.

With `C=CC(=O)Nc1ccc(F)c(Nc2nc(Nc3ccc(F)cc3)ncc2-c2ccc(C(F)(F)F)cc2)c1` [Compound 122, N-(4-fluoro-3-((2-((4-fluorophenyl)amino)-5-(4-(trifluoromethyl)phenyl)pyrimidin-4-yl)amino)phenyl)acrylamide trifluoroacetate], the GI50 in assay [1] was greater than 10 µM; in assay [2], 1.99 µM. Further, the half-maximal inhibitory concentration (IC50) in the assay on A431 cells came out at 3.69 µM.

Take `C=CC(=O)Nc1ccc(F)c(Nc2nc(Nc3cnn(C)c3)ncc2C2=CCOCC2)c1` [Compound 124, N-(3-((5-(3,6-dihydro-2H-pyran-4-yl)-2-((1-methyl-1H-pyrazol-4-yl)amino)pyrimidin-4-yl)amino)-4-fluorophenyl)acrylamide]: the values for the GI50 in assay [1] and in assay [2] were 0.284 µM and 0.328 µM, respectively. For the same molecule, the IC50 with A431 cells came out at 1.53 µM.

For `C=CC(=O)Nc1ccc(F)c(Nc2nc(Nc3cnn(C)c3)ncc2-c2cccc(CN(C)C)c2)c1` [Compound 134, N-(3-((5-(3-((dimethylamino)methyl)phenyl)-2-((1-methyl-1H-pyrazol-4-yl)amino)pyrimidin-4-yl)amino)-4-fluorophenyl)acrylamide], the values for the GI50 in assay [1] and in assay [2] were 8.41 µM and greater than 10 µM, respectively. Further, in the assay on A431 cells, the IC50 was determined as 3.28 µM.

Consider `C=CC(=O)Nc1ccc(F)c(Nc2nc(Nc3cnn(C)c3)ncc2-c2ccc(S(N)(=O)=O)cc2)c1` [Compound 138, N-(4-fluoro-3-((2-((1-methyl-1H-pyrazol-4-yl)amino)-5-(4-sulfamoylphenyl)pyrimidin-4-yl)amino)phenyl)acrylamide], for which the GI50 in assay [1] worked out at 2.88 µM; in assay [2], 3.14 µM. Moreover, the half-inhibitory concentration (IC50) in the assay on A431 cells was greater than 10 µM.

Take `C=CC(=O)Nc1ccc(F)c(Nc2nc(Nc3cnn(C)c3)ncc2-c2cccc(OC(F)F)c2)c1` [Compound 143, N-(3-((5-(3-(difluoromethoxy)phenyl)-2-((1-methyl-1H-pyrazol-4-yl)amino)pyrimidin-4-yl)amino)-4-fluorophenyl)acrylamide trifluoroacetate]: the GI50 in assay [1] came to 0.3 µM; in assay [2] it was 0.276 µM. In the assay on A431 cells, the IC50 turned out to be 0.235 µM.

Take `C=CC(=O)Nc1ccc(F)c(Nc2nc(Nc3cnn(C)c3)ncc2-c2cccc(N(C)C)c2)c1` [Compound 145, N-(3-((5-(3-(dimethylamino)phenyl)-2-((1-methyl-1H-pyrazol-4-yl)amino)pyrimidin-4-yl)amino)-4-fluorophenyl)acrylamide]: the results for the GI50 in assay [1] and in assay [2] were 2.02 µM and 0.911 µM, respectively. In addition, in the assay with A431 cells, the half-inhibitory concentration (IC50) came to 3.98 µM.

Consider `C=CC(=O)Nc1ccc(F)c(Nc2nc(Nc3cnn(C)c3)cnc2Cl)c1` [Compound 153, N-(3-((3-chloro-6-((1-methyl-1H-pyrazol-4-yl)amino)pyrazin-2-yl)amino)-4-fluorophenyl)acrylamide], for which the GI50 in assay [1] and in assay [2] was greater than 10 µM each time. Further, in the assay on A431 cells, the IC50 is greater than 10 µM.

Take `C=CC(=O)Nc1cccc(Oc2nc(Nc3cnn(C)c3)cnc2Cl)c1` [Compound 154, N-(3-((3-chloro-6-((1-methyl-1H-pyrazol-4-yl)amino)pyrazin-2-yl)oxy)phenyl)acrylamide]: the GI50 in assay [1] and in assay [2] was greater than 10 µM throughout. In addition, in the assay on A431 cells, the concentration for half-maximal inhibition (IC50) is greater than 10 µM.

Consider `C=CC(=O)Nc1ccc(F)c(Nc2nc(Nc3cnn(C)c3)nnc2Cl)c1` [Compound 155, N-(3-((6-chloro-3-((1-methyl-1H-pyrazol-4-yl)amino)-1,2,4-triazin-5-yl)amino)-4-fluorophenyl)acrylamide], for which the GI50 was found to be 2.48 µM in assay [1] and 1.41 µM in assay [2]. Further, in the assay on A431 cells, the IC50 is 6.46 µM.

Regarding `C=CC(=O)Nc1ccc(C(=O)Nc2ccccc2)c(Nc2nc(Nc3cnn(C)c3)ncc2Cl)c1` [Compound 163, 2-({5-chloro-2-[(1-methyl-1H-pyrazol-4-yl)amino]pyrimidin-4-yl}amino)-N-phenyl-4-(prop-2-enamido) benzamide], the GI50 was 9.44 µM in assay [1] and greater than 10 µM in assay [2]. In the assay with A431 cells, the IC50 was 8.25 µM.

The IC50 is the point on the concentration scale where inhibition reaches its midpoint.
